Results: the supplement of paper PMC10883282
± gives the standard deviation of the averaged measurements.

Tested on: RD-ES
Assay: relative viability vs DMSO control (72 h) (fraction); higher = more viable cells
Outline: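 Percent growth from ATPLite readings, averaged over up to triplicate wells, was used as relative viability. Sarcoma cell lines were seeded into 384-well plates for 80–90% confluence, dosed after 24 h, and kept 72 h at 37 °C, 5% CO2. Data were rescaled to a range where 1 is full and 0 is none.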

`CO[C@H]1C[C@@H]2CC[C@@H](C)[C@@](O)(O2)C(=O)C(=O)N2CCCC[C@H]2C(=O)O[C@H]([C@H](C)C[C@@H]2CC[C@@H](OP(C)(C)=O)[C@H](OC)C2)CC(=O)[C@H](C)/C=C(\C)[C@@H](O)[C@@H](OC)C(=O)[C@H](C)C[C@H](C)/C=C/C=C/C=C/1C` [Ridaforolimus] gave a relative viability (0.00017 µM) of 0.988 ± 0.013, a relative viability (0.00051 µM) of 0.978 ± 0.019 and a relative viability (0.00152 µM) of 0.893 ± 0.039. The relative viability (0.00457 µM) was 0.804 ± 0.0091, the relative viability (0.01372 µM) was 0.754 ± 0.019 and the relative viability (0.04115 µM) was 0.71 ± 0.011. It also gave a relative viability (0.1235 µM) of 0.6822 ± 0.0053, a relative viability (0.3704 µM) of 0.674 ± 0.0087 and a relative viability (1.111 µM) of 0.693 ± 0.025. The relative viability (3.333 µM) was 0.66 ± 0.026 and the relative viability (10 µM) was 0.627 ± 0.021.

`Cc1cnc(Nc2ccc(OCCN3CCCC3)cc2)nc1Nc1cccc(S(=O)(=O)NC(C)(C)C)c1` [Fedratinib] gave a relative viability (0.00017 µM) of 1.01 ± 0.013, a relative viability (0.00051 µM) of 1 ± 0.036 and a relative viability (0.00152 µM) of 1.02 ± 0.032. For the same compound, the relative viability (0.00457 µM) was 1.01 ± 0.027, the relative viability (0.01372 µM) was 0.98 ± 0.034 and the relative viability (0.04115 µM) was 0.972 ± 0.024. It also gave a relative viability (0.1235 µM) of 0.904 ± 0.026, a relative viability (0.3704 µM) of 0.7114 ± 0.0066 and a relative viability (1.111 µM) of 0.145 ± 0.0063. For the same compound, the relative viability (3.333 µM) was 0.00883 ± 0.0011 and the relative viability (10 µM) was 0.00587 ± 0.0018.

In the case of `Cn1cc(-c2cc3c(N4CCN(c5ncc([C@@](C)(N)c6ccc(F)cc6)cn5)CC4)ncnn3c2)cn1` [Avapritinib], the relative viability (0.00017 µM) is reported as 0.927 ± 0.028, the relative viability (0.00051 µM) is reported as 0.928 ± 0.034 and the relative viability (0.00152 µM) is reported as 0.934 ± 0.015. The relative viability (0.00457 µM) was 0.922 ± 0.026, the relative viability (0.01372 µM) was 0.936 ± 0.02 and the relative viability (0.04115 µM) was 0.932 ± 0.013. The relative viability (0.1235 µM) was 0.9089 ± 0.0059, the relative viability (0.3704 µM) was 0.884 ± 0.025 and the relative viability (1.111 µM) was 0.84 ± 0.044. It also gave a relative viability (3.333 µM) of 0.787 ± 0.047 and a relative viability (10 µM) of 0.716 ± 0.012.

`CN1CCN(c2ccc3nc(-c4c(N)c5c(F)cccc5[nH]c4=O)[nH]c3c2)CC1` [Dovitinib] showed a relative viability (0.00017 µM) of 0.955 ± 0.025, a relative viability (0.00051 µM) of 0.944 ± 0.067 and a relative viability (0.00152 µM) of 0.949 ± 0.024. For the same compound, the relative viability (0.00457 µM) was 0.943 ± 0.026, the relative viability (0.01372 µM) was 0.937 ± 0.014 and the relative viability (0.04115 µM) was 0.893 ± 0.021. For the same compound, the relative viability (0.1235 µM) was 0.899 ± 0.045, the relative viability (0.3704 µM) was 0.829 ± 0.027 and the relative viability (1.111 µM) was 0.575 ± 0.013. For the same compound, the relative viability (3.333 µM) was 0.24 ± 0.019 and the relative viability (10 µM) was 0.0296 ± 0.0072.
